Molecular target: T1, recombinant human MNL phosphodiesterase type IV B (Homo sapiens, UniProt Q07343)
T1 construct: FLAG; made in house; host or cells: insect cells infected with recombinant baculovirus
Assay: Inhibition of recombinant human mononuclear lymphocyte (MNL) phosphodiesterase type IV B produced in insect cells with a baculovirus vector
Type: biochemical
Settings: remaining enzyme activity versus control
Procedure: Inhibition of Recombinant Human Mononuclear Lymphocyte (MNL) Phosphodiesterase Type IV B Produced in Insect Cells with a Baculovirus Vector
The alleviating and/or curing effect of the instant compounds on allergic and atopic diseases was assessed by an in vitro assay system to detect an inhibiting effect on the recombinant human MNL phosphodiesterase type IV B.
Seventy-two hours after infection with recombinant baculovirus, the insect cells were harvested and pelleted at 500 g for 5 minutes. The cells were lysed in 10 ml lysis-buffer consisting of 20 mM Tris, 10 mM EGTA, 2 mM Na2EDTA, 1% Triton-X-100, 1 mM Na3VO4, 10 mM NaF, 2 μg/ml of leupeptine, pepstatine and aprotinine, 0.3 μg/ml benzamidine and 100 μg/ml TPCK pH 7.5. After 5 minutes on ice, solubilized cells were centrifuged at 4000 rpm for 15 minutes at 4° C. The resulting supernatant was filtered through a 0.45 μm filter (Millipore) and brought to TBS buffer (50 mM Tris, 150 mM NaCl pH 7.4).
The supernatant containing phosphodiesterase (PDE) type IV B, was subsequently loaded onto a 5 ml anti-FLAG-M2 affinity gel column, previously activated with 5 ml 100 mM glycine pH 3.5 and equilibrated with 20 ml 50 mM Tris, 150 mM NaCl pH 7.4. After washing the column with equilibration buffer, PDE IV was eluted in 1.5 ml fractions containing 37.5 μl IM Tris pH 8. The fractions were dialyzed overnight against 20 mM Tris, 2mM Na2EDTA and 400 mM NaCl pH 7.5 and tested for PDE IV activity. Identification was done on SDS PAGE and Western Blot (anti-FLAG-M2). Active fractions were pooled, brought to 10% glycerol and stored at −70° C.
The incubation mixture (pH 8) (200 μl) contained 20 mM Tris, 10 mM magnesium sulphate, 0.8 μM ^3H-cAMP (310 mCi/mmole) and the phosphodiesterase type IV, the amount depending on the enzymatic activity. […]
The inhibiting effect of the present compounds on recombinant human MNL phosphodiesterase PDE IV B was measured at different concentrations of the instant compounds.

T1 sequence (Q07343 whole entry): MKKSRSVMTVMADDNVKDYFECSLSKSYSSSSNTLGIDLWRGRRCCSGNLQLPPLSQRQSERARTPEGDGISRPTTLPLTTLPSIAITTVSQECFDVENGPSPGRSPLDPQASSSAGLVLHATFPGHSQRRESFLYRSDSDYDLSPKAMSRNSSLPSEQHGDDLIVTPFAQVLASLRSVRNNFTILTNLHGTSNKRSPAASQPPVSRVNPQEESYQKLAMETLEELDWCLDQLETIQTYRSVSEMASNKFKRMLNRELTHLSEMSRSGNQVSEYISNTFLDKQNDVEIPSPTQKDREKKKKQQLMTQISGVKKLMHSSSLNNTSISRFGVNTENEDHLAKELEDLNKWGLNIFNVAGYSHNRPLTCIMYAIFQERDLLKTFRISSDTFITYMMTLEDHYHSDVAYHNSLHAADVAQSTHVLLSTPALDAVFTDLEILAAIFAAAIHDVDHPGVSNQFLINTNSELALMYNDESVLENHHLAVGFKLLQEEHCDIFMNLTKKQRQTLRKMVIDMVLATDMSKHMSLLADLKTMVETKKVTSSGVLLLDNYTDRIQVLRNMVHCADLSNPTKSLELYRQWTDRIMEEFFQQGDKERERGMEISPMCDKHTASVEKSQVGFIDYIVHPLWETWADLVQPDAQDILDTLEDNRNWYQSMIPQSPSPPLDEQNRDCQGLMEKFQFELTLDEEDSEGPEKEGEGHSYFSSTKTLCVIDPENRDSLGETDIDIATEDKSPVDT

## COc1ccc(C(C)Cn2cc[nH]c2=NC#N)nc1OC1CCCC1 (racemic) [Compound 22, (±)-[1-[2-[6-(cyclopentyloxy)-5-methoxy-2-pyridinyl]propyl]-1,3-dihydro-2H-imidazol-2-ylidene]cyanamide]
Test Dose 10^−7 M
  % Activity (% activity of PDE IV B versus control): 25%

## COc1cnc(C(C)(O)Cn2cc[nH]c2=O)cc1OCCCCCc1ccccc1 (racemic) [Compound 23, (±)-1,3-dihydro-1-[2-hydroxy-2-[5-methoxy-4-[(5-phenylpentyl)oxy]-2-pyridinyl]propyl]-2H-imidazol-2-one]
Test Dose 10^−6 M
  % Activity (% activity of PDE IV B versus control): 35%

## COc1cnc(C(O)Cn2cc[nH]c2=O)cc1OCCCCCc1ccccc1 (stereo not drawn) [Compound 18, 1,3-dihydro-1-[2-hydroxy-2-[5-methoxy-4-[(5-phenylpentyl)oxy]-2-pyridinyl]ethyl]-2H-imidazol-2-one]
Test Dose 10^−6 M
  % Activity (% activity of PDE IV B versus control): 77%

Reference: patent publication US6656959B1, “PDE IV inhibiting pyridine derivatives” (Janssen Pharmaceutica N.V., priority 2000, dated 2003)
